Experimental findings from US9550739B2, “Molecules having certain pesticidal utilities, and intermediates, compositions, and processes related thereto” (priority 2014, dated 2017) are described below.

Holding throughout (format): in vivo
For data set [1], the system named is Cabbage Looper (Trichoplusia ni, TRIPNI) ("CL"). In words: Bioassays on Cabbage Looper (CL), 128-well diet tray assay. To be noted: Trichoplusia ni, 168 h, read-out: CL % Control (or Mortality) rating. The method, then:
(§1) Certain molecules disclosed in this document were tested against BAW and CEW using procedures described in the following examples. In the reporting of the results, the “BAW & CL Rating Table” was used (See Table Section).
Bioassays on CL were conducted using a 128-well diet tray assay. one to five second instar CL larvae were placed in each well (3 mL) of the diet tray that had been previously filled with 1 mL of artificial diet to which 50 μg/cm^2 of the test compound (dissolved in 50 μL of 90:10 acetone-water mixture) had been applied (to each of eight wells) and then allowed to dry. Trays were covered with a clear self-adhesive cover and held at 25° C., 14:10 light-dark for five to seven days. Percent mortality was recorded for the larvae in each well; activity in the eight wells was then averaged. The results are indicated in the table entitled “Table ABC: Biological Results” (See Table Section).

Data set [2] relates to Yellow Fever Mosquito (Aedes aegypti, AEDSAE) ("YFM"). To be noted: about 1 day-old larvae, 4000 ppm master solution diluted, 3 days, room temperature. The method, then:
Certain molecules disclosed in this document were tested against YFM using procedures described in the following paragraph. In the reporting of the results, the “YFM Rating Table” was used (See Table Section).
Master plates containing 400 μg of a molecule dissolved in 100 μL of dimethyl sulfoxide (DMSO) (equivalent to a 4000 ppm solution) are used. A master plate of assembled molecules contains 15 μL per well. To this plate, 135 μL of a 90:10 water:acetone mixture is added to each well. A robot (Biomek® NXP Laboratory Automation Workstation) is programmed to dispense 15 μL aspirations from the master plate into an empty 96-well shallow plate (“daughter” plate). There are 6 reps (“daughter” plates) created per master. The created daughter plates are then immediately infested with YFM larvae.
The day before plates are to be treated, mosquito eggs are placed in Millipore water containing liver powder to begin hatching (4 g. into 400 mL). After the daughter plates are created using the robot, they are infested with 220 μL of the liver powder/larval mosquito mixture (about 1 day-old larvae). After plates are infested with mosquito larvae, a non-evaporative lid is used to cover the plate to reduce drying. Plates are held at room temperature for 3 days prior to grading. After 3 days, each well is observed and scored based on mortality.

For data set [3], the system named is Beet Armyworm (Spodoptera exigua, LAPHEG) ("BAW"). Briefly: Bioassays on Beet Armyworm (BAW), 128-well diet tray assay. Conditions: Spodoptera exigua, 168 h; second instar BAW larvae, 50 μg/cm^2 on artificial diet, five to seven days, 25° C.; read-out: BAW % Control (or Mortality) rating. The protocol: as §1
Bioassays on BAW were conducted using a 128-well diet tray assay. one to five second instar BAW larvae were placed in each well (3 mL) of the diet tray that had been previously filled with 1 mL of artificial diet to which 50 μg/cm^2 of the test compound (dissolved in 50 μL of 90:10 acetone-water mixture) had been applied (to each of eight wells) and then allowed to dry. Trays were covered with a clear self-adhesive cover and held at 25° C., 14:10 light-dark for five to seven days. Percent mortality was recorded for the larvae in each well; activity in the eight wells was then averaged. The results are indicated in the table entitled “Table ABC: Biological Results” (See Table Section).

By mortality is commonly meant the share of the test organisms that died.

Turning to `O=C(Nc1ccc(-c2ncn(-c3ccc(OC(F)(F)F)cc3)n2)cc1)c1ccc(F)c(-c2ccccc2F)c1` [F28, 2′,6-Difluoro-N-(4-(1-(4-(trifluoromethoxy)phenyl)-1H-1,2,4-triazol-3-yl)phenyl)-[1,1′-biphenyl]-3-carboxamide], the mortality at 50 µg/cm2 in data set [1] and in data set [3] was 50 to 100% each time. Also, in data set [2], the “YFM % Control (or Mortality) rating” value was “A (80-100)”.

For `Cc1ccccc1-c1cc(F)cc(C(=O)N(C)c2ccc(-c3ncn(-c4ccc(OC(F)(F)C(F)(F)F)cc4)n3)cc2)c1` [F29, 5-fluoro-N,2′-dimethyl-N-(4-(1-(4-(perfluoroethoxy)phenyl)-1H-1,2,4-triazol-3-yl)phenyl)-[1,1′-biphenyl]-3-carboxamide], the mortality at 50 µg/cm2 was 0% in data set [1] and 50 to 100% in data set [3]. Further, the “YFM % Control (or Mortality) rating” value in data set [2] is reported as “D (No activity noticed in this bioassay)”.

On to `O=C(Nc1ccc(-c2ncn(-c3ccc(OC(F)(F)F)cc3)n2)cc1)c1cccc(-c2ccccc2Cl)c1` [F30, 2′-Chloro-N-(4-(1-(4-(trifluoromethoxy)phenyl)-1H-1,2,4-triazol-3-yl)phenyl)-[1,1′-biphenyl]-3-carboxamide], for which the mortality at 50 µg/cm2 in data set [1] and in data set [3] was 50 to 100% throughout. Also, the “YFM % Control (or Mortality) rating” value in data set [2] was “D (No activity noticed in this bioassay)”.

For the compound `Cc1cccc(C)c1-c1cccc(C(=O)Nc2ccc(-c3ncn(-c4ccc(OC(F)(F)C(F)(F)F)cc4)n3)cc2)c1` [F31, 2′,6′-Dimethyl-N-(4-(1-(4-(perfluoroethoxy)phenyl)-1H-1,2,4-triazol-3-yl)phenyl)-[1,1′-biphenyl]-3-carboxamide], the mortality at 50 µg/cm2 in data set [1] and in data set [3] was 50 to 100% in each case. Further, in data set [2], the “YFM % Control (or Mortality) rating” value is on record as “D (No activity noticed in this bioassay)”.

As to `Cc1ccccc1-c1cc(C(=O)Nc2ccc(-c3ncn(-c4ccc(OC(F)(F)F)cc4)n3)cc2)ccc1Cl` [F32, 6-Chloro-2′-methyl-N-(4-(1-(4-(trifluoromethoxy)phenyl)-1H-1,2,4-triazol-3-yl)phenyl)-[1,1′-biphenyl]-3-carboxamide], the mortality at 50 µg/cm2 in data set [1] was 50 to 100%; in data set [3] it was 0%. The “YFM % Control (or Mortality) rating” value in data set [2] is listed as “D (No activity noticed in this bioassay)”.

As for `Cc1ccccc1-c1cccc(C(=O)Nc2ccc(-c3ncn(-c4ccc(OC(F)(F)F)cc4)n3)cc2)n1` [F33, 6-(o-Tolyl)-N-(4-(1-(4-(trifluoromethoxy)phenyl)-1H-1,2,4-triazol-3-yl)phenyl)picolinamide], the mortality at 50 µg/cm2 in data set [1] is 50 to 100%; in data set [3], 0%. In addition, in data set [2], the “YFM % Control (or Mortality) rating” value was “D (No activity noticed in this bioassay)”.

As to `O=C(Nc1ccc(-c2ncn(-c3ccc(OC(F)(F)F)cc3)n2)cc1)c1ccc(Cl)c(-c2ccccc2)c1` [F34, 6-Chloro-N-(4-(1-(4-(trifluoromethoxy)phenyl)-1H-1,2,4-triazol-3-yl)phenyl)-[1,1′-biphenyl]-3-carboxamide], the mortality at 50 µg/cm2 in data set [1] and in data set [3] was 50 to 100% each time. Besides, the “YFM % Control (or Mortality) rating” value in data set [2] is on record as “D (No activity noticed in this bioassay)”.

Turning to `Cc1ccccc1-c1cccc(C(=O)Nc2ccc(-c3ncn(-c4ccc(OC(F)(F)C(F)(F)F)cc4)n3)cc2)c1` [F35, 2′-Methyl-N-(4-(1-(4-(perfluoroethoxy)phenyl)-1H-1,2,4-triazol-3-yl)phenyl)-[1,1′-biphenyl]-3-carboxamide], the mortality at 50 µg/cm2 in data set [1] and in data set [3] was 50 to 100% each time. Also, in data set [2], the “YFM % Control (or Mortality) rating” value is reported as “D (No activity noticed in this bioassay)”.

For `O=C(Nc1ccc(-c2ncn(-c3ccc(OC(F)(F)C(F)(F)F)cc3)n2)cc1)c1cccc(-c2ccccc2OC(F)(F)F)c1` [F36, N-(4-(1-(4-(Perfluoroethoxy)phenyl)-1H-1,2,4-triazol-3-yl)phenyl)-2′-(trifluoromethoxy)-[1,1′-biphenyl]-3-carboxamide], the results for the mortality at 50 µg/cm2 in data set [1] and in data set [3] were 50 to 100% and 0%, respectively. Also, the “YFM % Control (or Mortality) rating” value in data set [2] is reported as “D (No activity noticed in this bioassay)”.

As to `COc1ccc(C(=O)Nc2ccc(-c3ncn(-c4ccc(OC(F)(F)F)cc4)n3)cc2)cc1-c1ccccc1` [F37, 6-Methoxy-N-(4-(1-(4-(trifluoromethoxy)phenyl)-1H-1,2,4-triazol-3-yl)phenyl)-[1,1′-biphenyl]-3-carboxamide], the mortality at 50 µg/cm2 in data set [1] and in data set [3] was 50 to 100% each time. In addition, the “YFM % Control (or Mortality) rating” value in data set [2] was “A (80-100)”.

As for `Cc1ccccc1-c1cc(F)cc(C(=O)Nc2ccc(-c3ncn(-c4ccc(OC(F)(F)F)cc4)n3)cc2)c1` [F39, 5-Fluoro-2′-methyl-N-(4-(1-(4-(trifluoromethoxy)phenyl)-1H-1,2,4-triazol-3-yl)phenyl)-[1,1′-biphenyl]-3-carboxamide], the mortality at 50 µg/cm2 in data set [1] and in data set [3] was 50 to 100% in each case. For the same compound, the “YFM % Control (or Mortality) rating” value in data set [2] is “D (No activity noticed in this bioassay)”.

Take `O=C(Nc1ccc(-c2ncn(-c3ccc(OC(F)(F)C(F)(F)F)cc3)n2)cc1)c1ccc(F)c(-c2ccccc2)c1` [F40, 6-Fluoro-N-(4-(1-(4-(perfluoroethoxy)phenyl)-1H-1,2,4-triazol-3-yl)phenyl)-[1,1′-biphenyl]-3-carboxamide]: the mortality at 50 µg/cm2 was 50 to 100% in data set [1] and 0% in data set [3]. Further, the “YFM % Control (or Mortality) rating” value in data set [2] is “D (No activity noticed in this bioassay)”.

As to `CC(=O)c1ccccc1-c1cccc(C(=O)Nc2ccc(-c3ncn(-c4ccc(OC(F)(F)F)cc4)n3)cc2)c1` [F41, 2′-Acetyl-N-(4-(1-(4-(trifluoromethoxy)phenyl)-1H-1,2,4-triazol-3-yl)phenyl)-[1,1′-biphenyl]-3-carboxamide], the mortality at 50 µg/cm2 in data set [1] and in data set [3] was 50 to 100% each time. Also, the “YFM % Control (or Mortality) rating” value in data set [2] was “A (80-100)”.

As to `Cc1ccccc1-c1cc(F)cc(C(=O)Nc2ccc(-c3ncn(-c4ccc(OC(F)(F)C(F)(F)F)cc4)n3)cc2)c1` [F42, 5-Fluoro-2′-methyl-N-(4-(1-(4-(perfluoroethoxy)phenyl)-1H-1,2,4-triazol-3-yl)phenyl)-[1,1′-biphenyl]-3-carboxamide], the values for the mortality at 50 µg/cm2 in data set [1] and in data set [3] were 50 to 100% and 0%, respectively. For the same compound, the “YFM % Control (or Mortality) rating” value in data set [2] is reported as “D (No activity noticed in this bioassay)”.

Take `O=C(Nc1ccc(-c2ncn(-c3ccc(OC(F)(F)F)cc3)n2)cc1)c1cc(Cl)cc(-c2ccccc2)c1` [F43, 5-Chloro-N-(4-(1-(4-(trifluoromethoxy)phenyl)-1H-1,2,4-triazol-3-yl)phenyl)-[1,1′-biphenyl]-3-carboxamide]: the mortality at 50 µg/cm2 in data set [1] and in data set [3] was 50 to 100% each time. Moreover, the “YFM % Control (or Mortality) rating” value in data set [2] is given as “D (No activity noticed in this bioassay)”.

For the compound `COc1ccccc1-c1cc(C(=O)Nc2ccc(-c3ncn(-c4ccc(OC(F)(F)F)cc4)n3)cc2)ccc1F` [F44, 6-Fluoro-2′-methoxy-N-(4-(1-(4-(trifluoromethoxy)phenyl)-1H-1,2,4-triazol-3-yl)phenyl)-[1,1′-biphenyl]-3-carboxamide], the mortality at 50 µg/cm2 in data set [1] and in data set [3] was 50 to 100% throughout. In addition, the “YFM % Control (or Mortality) rating” value in data set [2] was “B (More than 0-Less than 80)”.

For the compound `O=C(Nc1ccc(-c2ncn(-c3ccc(OC(F)(F)C(F)(F)F)cc3)n2)cc1)c1cccc(-c2ccccc2)c1` [F45, N-(4-(1-(4-(perfluoroethoxy)phenyl)-1H-1,2,4-triazol-3-yl)phenyl)-[1,1′-biphenyl]-3-carboxamide], the mortality at 50 µg/cm2 in data set [1] and in data set [3] was 50 to 100% throughout. Besides, the “YFM % Control (or Mortality) rating” value in data set [2] is “D (No activity noticed in this bioassay)”.
